Data published in paper PMC5218480 (PLoS ONE, 2017).

Tested on: MV-4-11 cells
Assay: Gene expression microarray analysis (Affymetrix PrimeView) and GSEA
Format: cell-based, human
Set-up: RFU PODN (11730768_x_at) / Fold change /veh PODN (11730768_x_at) / RFU LINC00158 (11744669_a_at) / Fold change /veh LINC00158 (11744669_a_at) / RFU DUSP10 (11751237_a_at) / Fold change /veh DUSP10 (11751237_a_at) / RFU ID3 (11757404_x_at) / Fold change /veh ID3 (11757404_x_at) / RFU PLEKHG5 (11737974_s_at) / Fold change /veh PLEKHG5 (11737974_s_at) / RFU LRRC4B (11730491_at) / Fold change /veh LRRC4B (11730491_at) / RFU GIMAP4 (11747438_a_at) / Fold change /veh GIMAP4 (11747438_a_at) / RFU KRT8 (11758183_x_at) / Fold change /veh KRT8 (11758183_x_at) / RFU CNN1 (11734310_a_at) / Fold change /veh CNN1 (11734310_a_at) / RFU VPS37D (11726825_at) / Fold change /veh VPS37D (11726825_at) / RFU C10orf10 (11716522_x_at) / Fold change /veh C10orf10 (11716522_x_at) / RFU KIR2DL2 /// KIR2DL4 /// KIR2DL5A /// KIR2DL5B /// KIR2DS1 /// KIR2DS2 /// KIR2DS3 /// KIR2DS4 /// KIR3DL3 /// KIR3DL3 /// KIR3DS1 (11738374_at) / Fold change /veh KIR2DL2 /// KIR2DL4 /// KIR2DL5A /// KIR2DL5B /// KIR2DS1 /// KIR2DS2 /// KIR2DS3 /// KIR2DS4 /// KIR3DL3 /// KIR3DL3 /// KIR3DS1 (11738374_at) / RFU C1QL1 (11718748_at) / Fold change /veh C1QL1 (11718748_at) / RFU TMPRSS4 (11747572_a_at) / Fold change /veh TMPRSS4 (11747572_a_at) / RFU HAMP (11756126_x_at) / Fold change /veh HAMP (11756126_x_at) / RFU RNFT2 (11725882_a_at) / Fold change /veh RNFT2 (11725882_a_at) / RFU NR4A2 (11747474_a_at) / Fold change /veh NR4A2 (11747474_a_at) / RFU ABCC12 (11746883_a_at) / Fold change /veh ABCC12 (11746883_a_at) / RFU TMEM136 (11760407_x_at) / Fold change /veh TMEM136 (11760407_x_at) / RFU CLDN22 /// WWC2 (11732394_at) / Fold change /veh CLDN22 /// WWC2 (11732394_at) / RFU HLA-DPB1 (11760878_x_at) / Fold change /veh HLA-DPB1 (11760878_x_at) / RFU SPINT1 (11716480_a_at) / Fold change /veh SPINT1 (11716480_a_at) / RFU GAP43 (11754022_s_at) / Fold change /veh GAP43 (11754022_s_at) / RFU A4GNT (11735810_at) / Fold change /veh A4GNT (11735810_at) / RFU PRB3 (11715151_x_at) / Fold change /veh PRB3 (11715151_x_at) / RFU TUBB4B (11761932_at) / Fold change /veh TUBB4B (11761932_at) / RFU CAPN14 (11732068_a_at) / Fold change /veh CAPN14 (11732068_a_at) / RFU TMCC2 (11721928_a_at) / Fold change /veh TMCC2 (11721928_a_at) / RFU IRGQ (11745062_a_at) / Fold change /veh IRGQ (11745062_a_at) / RFU FAM174B (11720279_a_at) / Fold change /veh FAM174B (11720279_a_at) / RFU TMPRSS4 (11748680_a_at) / Fold change /veh TMPRSS4 (11748680_a_at) / RFU FAM212B (11763350_a_at) / Fold change /veh FAM212B (11763350_a_at) / RFU PLEKHG5 (11743358_a_at) / Fold change /veh PLEKHG5 (11743358_a_at) / RFU ZSCAN30 (11745921_a_at) / Fold change /veh ZSCAN30 (11745921_a_at) / RFU CMKLR1 (11741424_a_at) / Fold change /veh CMKLR1 (11741424_a_at) / RFU LOC101060620 /// MAPK8IP1 (11723275_at) / Fold change /veh LOC101060620 /// MAPK8IP1 (11723275_at) / RFU SPTSSB (11747773_x_at) / Fold change /veh SPTSSB (11747773_x_at) / RFU PRSS12 (11739890_at) / Fold change /veh PRSS12 (11739890_at) / RFU BIN1 (11741810_x_at) / Fold change /veh BIN1 (11741810_x_at) / RFU WNT11 (11732464_a_at) / Fold change /veh WNT11 (11732464_a_at) / RFU C10orf10 (11716521_a_at) / Fold change /veh C10orf10 (11716521_a_at) / RFU C5orf56 (11738089_at) / Fold change /veh C5orf56 (11738089_at) / RFU CYB561 (11721691_x_at) / Fold change /veh CYB561 (11721691_x_at) / RFU ANKRD19P (11752326_a_at) / Fold change /veh ANKRD19P (11752326_a_at) / RFU OR2T12 /// OR2T33 /// OR2T8 (11738714_s_at) / Fold change /veh OR2T12 /// OR2T33 /// OR2T8 (11738714_s_at) / RFU VCAN (11748164_a_at) / Fold change /veh VCAN (11748164_a_at) / RFU JSRP1 (11732532_at) / Fold change /veh JSRP1 (11732532_at) / RFU KRTAP10-11 (11738290_x_at) / Fold change /veh KRTAP10-11 (11738290_x_at) / RFU MYO3A (11730013_a_at) / Fold change /veh MYO3A (11730013_a_at) / RFU EBF3 (11725865_a_at) / Fold change /veh EBF3 (11725865_a_at) / RFU CAMK2N1 (11719241_x_at) / Fold change /veh CAMK2N1 (11719241_x_at) / RFU C5orf56 (11738088_a_at) / Fold change /veh C5orf56 (11738088_a_at) / RFU OLFML3 (11715873_a_at) / Fold change /veh OLFML3 (11715873_a_at) / RFU LOC100653217 /// NTM (11731650_a_at) / Fold change /veh LOC100653217 /// NTM (11731650_a_at) / RFU MAPK11 (11762145_a_at) / Fold change /veh MAPK11 (11762145_a_at) / RFU FIZ1 (11724087_x_at) / Fold change /veh FIZ1 (11724087_x_at) / RFU OASL (11726364_x_at) / Fold change /veh OASL (11726364_x_at) / RFU SOX15 (11748057_x_at) / Fold change /veh SOX15 (11748057_x_at) / RFU CD79A (11719716_a_at) / Fold change /veh CD79A (11719716_a_at) / RFU HIST1H1D (11736915_at) / Fold change /veh HIST1H1D (11736915_at) / RFU CASKIN2 (11723855_a_at) / Fold change /veh CASKIN2 (11723855_a_at) / RFU LOC730098 (11760151_x_at) / Fold change /veh LOC730098 (11760151_x_at) / RFU OR4N2 (11742367_at) / Fold change /veh OR4N2 (11742367_at) / RFU PRRT2 (11749266_a_at) / Fold change /veh PRRT2 (11749266_a_at) / RFU SNX32 (11753110_a_at) / Fold change /veh SNX32 (11753110_a_at) / RFU CDHR5 (11726645_a_at) / Fold change /veh CDHR5 (11726645_a_at) / RFU RCAN1 (11760418_a_at) / Fold change /veh RCAN1 (11760418_a_at) / RFU FAM167A (11723789_a_at) / Fold change /veh FAM167A (11723789_a_at) / RFU FAM26E (11764081_at) / Fold change /veh FAM26E (11764081_at) / RFU ISYNA1 (11749810_s_at) / Fold change /veh ISYNA1 (11749810_s_at) / RFU ACY1 (11761880_at) / Fold change /veh ACY1 (11761880_at) / RFU 11764098_at / Fold change /veh 11764098_at / RFU SAMD14 (11745864_x_at) / Fold change /veh SAMD14 (11745864_x_at) / RFU NPB (11741838_a_at) / Fold change /veh NPB (11741838_a_at) / RFU TMPRSS6 (11731388_a_at) / Fold change /veh TMPRSS6 (11731388_a_at) / RFU KRTAP10-2 (11738614_at) / Fold change /veh KRTAP10-2 (11738614_at) / RFU ARHGAP8 /// PRR5-ARHGAP8 (11727945_x_at) / Fold change /veh ARHGAP8 /// PRR5-ARHGAP8 (11727945_x_at) / RFU KRTAP5-7 /// NADSYN1 (11734609_at) / Fold change /veh KRTAP5-7 /// NADSYN1 (11734609_at) / RFU RASL12 (11751679_a_at) / Fold change /veh RASL12 (11751679_a_at) / RFU CDKN2B (11736163_a_at) / Fold change /veh CDKN2B (11736163_a_at) / RFU PRF1 (11729649_at) / Fold change /veh PRF1 (11729649_at) / RFU, ZNF638 /// ZNF638-IT1 / Fold change vs veh, ZNF638 /// ZNF638-IT1 / RFU, PANK3 / Fold change vs veh, PANK3 / RFU, SH3YL1 / Fold change vs veh, SH3YL1 / RFU, ZEB2 / Fold change vs veh, ZEB2 / RFU, NRIP1 / Fold change vs veh, NRIP1 / RFU, PTTG1IP / Fold change vs veh, PTTG1IP / RFU, CAPN2 / Fold change vs veh, CAPN2 / RFU, MED14 / Fold change vs veh, MED14 / RFU, SNORA58 / Fold change vs veh, SNORA58 / RFU, C1orf63 / Fold change vs veh, C1orf63 / RFU, LRRFIP1 / Fold change vs veh, LRRFIP1 / RFU, NDUFAF7 / Fold change vs veh, NDUFAF7 / RFU, SLC12A2 / Fold change vs veh, SLC12A2 / RFU, IBTK / Fold change vs veh, IBTK / RFU, ESF1 / Fold change vs veh, ESF1 / Fold change vs veh, TMEM50B / RFU, TAOK1 / Fold change vs veh, TAOK1 / RFU, ACBD3 / Fold change vs veh, ACBD3 / RFU, TMA16 / Fold change vs veh, TMA16 / RFU, RWDD3 / Fold change vs veh, RWDD3 / RFU, BCAT1 / Fold change vs veh, BCAT1 / RFU, EDEM3 / Fold change vs veh, EDEM3 / RFU, TMEM33 / Fold change vs veh, TMEM33 / RFU, WDR75 / Fold change vs veh, WDR75 / RFU, AHCTF1 / Fold change vs veh, AHCTF1 / RFU, TFRC / Fold change vs veh, TFRC / RFU, ZDHHC17 / Fold change vs veh, ZDHHC17 / RFU, NOM1 / Fold change vs veh, NOM1 / RFU, ARL8B / Fold change vs veh, ARL8B / RFU, ZBTB11 / Fold change vs veh, ZBTB11 / RFU, TAMM41 / Fold change vs veh, TAMM41 / RFU, KIAA1704 /// LOC100996395 / Fold change vs veh, KIAA1704 /// LOC100996395 / RFU, ING1 / Fold change vs veh, ING1 / RFU, TRMT61B / Fold change vs veh, TRMT61B / RFU, FUBP3 / Fold change vs veh, FUBP3 / RFU, TP53 / Fold change vs veh, TP53 / RFU, TNKS2 / Fold change vs veh, TNKS2 / RFU, ZFP14 / Fold change vs veh, ZFP14 / RFU, ACTR2 / Fold change vs veh, ACTR2 / RFU, PPP3R1 / Fold change vs veh, PPP3R1 / RFU, PIK3R1 / Fold change vs veh, PIK3R1 / RFU, HNRNPA1 / Fold change vs veh, HNRNPA1 / RFU, RNF170 / Fold change vs veh, RNF170 / RFU, ZNF28 / Fold change vs veh, ZNF28 / RFU, RNGTT / Fold change vs veh, RNGTT / RFU, OGT / Fold change vs veh, OGT / RFU, BRD1 / Fold change vs veh, BRD1 / RFU, MARS / Fold change vs veh, MARS / RFU, ZNF655 / Fold change vs veh, ZNF655 / RFU, FAHD1 / Fold change vs veh, FAHD1 / RFU, BDP1 / Fold change vs veh, BDP1 / RFU, LRRCC1 / Fold change vs veh, LRRCC1 / RFU, ARID1A / Fold change vs veh, ARID1A / RFU, ZNF146 / Fold change vs veh, ZNF146 / RFU, ZNF330 / Fold change vs veh, ZNF330 / RFU, GPN3 / Fold change vs veh, GPN3 / RFU, C9orf123 / Fold change vs veh, C9orf123 / RFU, N4BP2L2 / Fold change vs veh, N4BP2L2 / RFU, ARFIP1 / Fold change vs veh, ARFIP1 / RFU, FAM179B / Fold change vs veh, FAM179B / RFU, BCL10 / Fold change vs veh, BCL10 / RFU, UHRF1BP1L / Fold change vs veh, UHRF1BP1L / RFU, BET1 / Fold change vs veh, BET1 / RFU, CNOT2 / Fold change vs veh, CNOT2 / RFU, ZNF268 / Fold change vs veh, ZNF268 / Fold change vs veh, ZNF507 / RFU, DGCR2 / Fold change vs veh, DGCR2 / RFU, WDSUB1 / Fold change vs veh, WDSUB1 / Fold change vs veh, HSP90B1 /// MIR3652 / RFU, ADSS / Fold change vs veh, ADSS / RFU, GK / Fold change vs veh, GK / RFU, ZNF148 / Fold change vs veh, ZNF148 / RFU, TAF9 / Fold change vs veh, TAF9 / RFU, SLC1A5 / Fold change vs veh, SLC1A5 / RFU, SLMO2 / Fold change vs veh, SLMO2 / RFU, ABCC4 / Fold change vs veh, ABCC4 / RFU, LOC101060439 /// RAP1B / Fold change vs veh, LOC101060439 /// RAP1B / RFU, RFX7 / Fold change vs veh, RFX7 / RFU, GTPBP10 / Fold change vs veh, GTPBP10 / RFU, CNEP1R1 / Fold change vs veh, CNEP1R1 / RFU, BIVM-ERCC5 /// ERCC5 / Fold change vs veh, BIVM-ERCC5 /// ERCC5 / RFU, ILF3 / Fold change vs veh, ILF3 / RFU 11762660_at / Fold change /veh 11762660_at / RFU VCAN (11757783_s_at) / Fold change /veh VCAN (11757783_s_at) / RFU DDX43 (11728927_at) / Fold change /veh DDX43 (11728927_at) / RFU KRT8 (11758188_x_at) / Fold change /veh KRT8 (11758188_x_at) / RFU NKD1 (11759106_at) / Fold change /veh NKD1 (11759106_at) / RFU SRD5A1 (11742802_a_at) / Fold change /veh SRD5A1 (11742802_a_at) / RFU TPSAB1 /// TPSB2 (11721975_s_at) / Fold change /veh TPSAB1 /// TPSB2 (11721975_s_at) / RFU GSTM3 (11746129_a_at) / Fold change /veh GSTM3 (11746129_a_at) / RFU IL23R (11737362_x_at) / Fold change /veh IL23R (11737362_x_at) / RFU TMEM51 (11727254_a_at) / Fold change /veh TMEM51 (11727254_a_at) / RFU PIWIL2 (11732686_x_at) / Fold change /veh PIWIL2 (11732686_x_at) / RFU ORM1 (11744905_x_at) / Fold change /veh ORM1 (11744905_x_at) / RFU CCDC152 (11743942_at) / Fold change /veh CCDC152 (11743942_at) / RFU ECM1 (11717891_a_at) / Fold change /veh ECM1 (11717891_a_at) / RFU IL23R (11748794_a_at) / Fold change /veh IL23R (11748794_a_at) / RFU TNFAIP8L3 (11732012_x_at) / Fold change /veh TNFAIP8L3 (11732012_x_at) / RFU MBOAT4 (11741988_at) / Fold change /veh MBOAT4 (11741988_at) / RFU 11764193_at / Fold change /veh 11764193_at / RFU TMEM53 (11763286_at) / Fold change /veh TMEM53 (11763286_at) / RFU MAGEB2 (11727129_at) / Fold change /veh MAGEB2 (11727129_at) / RFU TMEM200A (11744735_a_at) / Fold change /veh TMEM200A (11744735_a_at) / RFU CCDC152 (11751479_a_at) / Fold change /veh CCDC152 (11751479_a_at) / RFU FAM211A (11726209_a_at) / Fold change /veh FAM211A (11726209_a_at) / RFU RGS16 (11746705_a_at) / Fold change /veh RGS16 (11746705_a_at) / RFU VCAN (11755009_s_at) / Fold change /veh VCAN (11755009_s_at) / RFU RHOB (11743442_s_at) / Fold change /veh RHOB (11743442_s_at) / RFU RGS16 (11720943_a_at) / Fold change /veh RGS16 (11720943_a_at) / RFU RGS16 (11720944_at) / Fold change /veh RGS16 (11720944_at) / RFU, VPS4B / Fold change vs veh, VPS4B / RFU, CREB1 / Fold change vs veh, CREB1 / RFU, DNAJC13 / Fold change vs veh, DNAJC13 / RFU, GNAQ / Fold change vs veh, GNAQ / RFU, CDK5R1 / Fold change vs veh, CDK5R1 / RFU, ZRANB3 / Fold change vs veh, ZRANB3 / RFU, CUL4A / Fold change vs veh, CUL4A / RFU, CCNY / Fold change vs veh, CCNY / RFU, UFL1 / Fold change vs veh, UFL1 / RFU, COG3 / Fold change vs veh, COG3 / RFU, DIAPH2 / Fold change vs veh, DIAPH2 / RFU, SKA2 / Fold change vs veh, SKA2 / RFU, AFF3 / Fold change vs veh, AFF3 / RFU, LMF1 / Fold change vs veh, LMF1 / RFU, IPO11 / Fold change vs veh, IPO11 / RFU, DFFB / Fold change vs veh, DFFB / RFU, FOXP1 / Fold change vs veh, FOXP1 / RFU, CARD8 / Fold change vs veh, CARD8 / RFU, STRN3 / Fold change vs veh, STRN3 / RFU, ADK / Fold change vs veh, ADK / RFU, RASSF2 / Fold change vs veh, RASSF2 / RFU, WIPF1 / Fold change vs veh, WIPF1 / RFU, LARP1B / Fold change vs veh, LARP1B / RFU, RASA1 / Fold change vs veh, RASA1 / RFU, RB1 / Fold change vs veh, RB1 / RFU, PPFIA1 / Fold change vs veh, PPFIA1 / RFU, MAT2A / Fold change vs veh, MAT2A / RFU, CCT5 / Fold change vs veh, CCT5 / RFU, WDR92 / Fold change vs veh, WDR92 / RFU, CUX1 / Fold change vs veh, CUX1 / RFU, TTC7A / Fold change vs veh, TTC7A / RFU, TMEM135 / Fold change vs veh, TMEM135 / RFU, DEPTOR / Fold change vs veh, DEPTOR / RFU, CPM / Fold change vs veh, CPM / RFU, DNAJB6 / Fold change vs veh, DNAJB6 / RFU, CACNA2D3 / Fold change vs veh, CACNA2D3 / RFU, DTX4 / Fold change vs veh, DTX4 / RFU, TFCP2 / Fold change vs veh, TFCP2 / RFU, GMCL1 /// GMCL1P1 / Fold change vs veh, GMCL1 /// GMCL1P1 / RFU, AEBP2 / Fold change vs veh, AEBP2 / RFU, SNHG1 /// SNORD22 /// SNORD25 /// SNORD26 /// SNORD27 /// SNORD28 /// SNORD29 /// SNORD31 / Fold change vs veh, SNHG1 /// SNORD22 /// SNORD25 /// SNORD26 /// SNORD27 /// SNORD28 /// SNORD29 /// SNORD31 / Fold change (Aza/veh), C12orf56 (ProbeSet 11735607_a_at) / Fold change (ACY-1035/veh), C12orf56 (ProbeSet 11735607_a_at) / Fold change (Aza/veh), FGFR1OP (ProbeSet 11751329_s_at) / Fold change (ACY-1035/veh), FGFR1OP (ProbeSet 11751329_s_at) / Fold change (Aza/veh), VPS36 (ProbeSet 11739960_a_at) / Fold change (ACY-1035/veh), VPS36 (ProbeSet 11739960_a_at) / RFU SYPL1 (11715823_x_at) / Fold change /veh SYPL1 (11715823_x_at) / RFU IGFBP7 (11715501_s_at) / Fold change /veh IGFBP7 (11715501_s_at) / RFU REEP3 (11722064_at) / Fold change /veh REEP3 (11722064_at) / RFU IGLL1 (11728026_x_at) / Fold change /veh IGLL1 (11728026_x_at): dose or concentration left out as unconfirmed
Details: ProbeSet 11721521_at; LIST B

## Nc1ncn([C@@H]2O[C@H](CO)[C@@H](O)[C@H]2O)c(=O)n1 [azacitidine]
  Fold change vs veh, ZDHHC17: 0.88
